Experimental findings from US10239849B2 (Merck Sharp & Dohme Corp., priority 2015, dated 2019) are described below.

SMILES strings stand for the structures.

The term Emax denotes the greatest response seen or fitted, relative to the assay's reference.

The target of test [1] is T1, glutathione-S-transferase (GST) tagged LXRbeta LBD (ligand binding domain) (Homo sapiens, UniProt P55055).
T1 construct: purchased Invitrogen pv4658.pps
T1 sequence (P55055 222-460 limits assumed): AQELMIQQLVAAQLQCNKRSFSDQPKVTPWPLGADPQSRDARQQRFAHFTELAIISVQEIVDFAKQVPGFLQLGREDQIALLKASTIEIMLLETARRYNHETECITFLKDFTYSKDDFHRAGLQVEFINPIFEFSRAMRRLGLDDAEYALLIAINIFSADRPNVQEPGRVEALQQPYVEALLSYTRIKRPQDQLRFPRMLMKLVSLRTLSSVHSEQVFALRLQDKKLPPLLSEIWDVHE
In words: LanthaScreen TR-FRET Liver X Receptor Coactivator Assay, LXR beta-LBD. In kind it is biochemical. The following applies: for Emax: efficacy in relation to reference dual agonist T1317, read-out: LXR beta activity at max dose (%) (Emax); for EC50: potency (Inflection Point) of co-activator recruitment, TR-FRET, read-out: LXR beta IP. As to the method:
(§1) While running the LanthaScreen™ TR-FRET Liver X Receptor Coactivator Assay, LXR alpha-LBD or LXR beta-LBD was added to ligand test compounds followed by addition of a mixture of a fluorescein-labelled coactivator peptide and terbium-conjugated anti-GST antibody. After an incubation period at room temperature, TR-FRET (time-resolved fluorescence resonance energy transfer) was measured using a filter-based instrument capable of TR-FRET, e.g. PerkinElmer Envision.
(TR-FRET usually uses a lanthanide donor and a delayed reading to cut background.)

Test [2] addresses T2, glutathione-S-transferase (GST) tagged LXRalpha LBD (ligand binding domain) (Homo sapiens, UniProt Q13133).
T2 construct: purchased Invitrogen pv4655
T2 sequence (Q13133 209-447 limits assumed): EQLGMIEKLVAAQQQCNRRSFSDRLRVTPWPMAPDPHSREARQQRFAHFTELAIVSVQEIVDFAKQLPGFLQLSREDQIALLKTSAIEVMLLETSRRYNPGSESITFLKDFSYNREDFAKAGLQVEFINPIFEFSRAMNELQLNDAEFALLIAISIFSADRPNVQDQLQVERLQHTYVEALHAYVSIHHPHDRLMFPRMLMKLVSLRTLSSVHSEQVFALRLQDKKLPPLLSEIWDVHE
In words: LanthaScreen TR-FRET Liver X Receptor Coactivator Assay, LXR alpha-LBD. It counts as biochemical. The conditions noted are these: for Emax: efficacy in relation to reference dual agonist T1317, read-out: LXR alpha activity at max dose (%) (Emax); for EC50: potency (Inflection Point) of co-activator recruitment, TR-FRET, read-out: LXR alpha IP. How it is done: as §1

Take `CN(C)C(=O)c1c(Cl)cc(-c2cnc(N3CCN(C(=O)[C@](O)(c4ccccc4)C(F)(F)F)CC3)c(C#N)c2)cc1Cl` [Example 7-1, 2,6-dichloro-4-(5-cyano-6-{4-[(2R)-3,3,3-trifluoro-2-hydroxy-2-phenylpropanoyl]piperazin-1-yl}pyridin-3-yl)-N,N-dimethylbenzamide]: the Emax was 73% in test [1] and 53% in test [2]. The EC50 in test [1] was 3 nM; in test [2] it was 186 nM.
Regarding `CN(C)C(=O)c1ccc(-c2cnc(N3CCN(C(=O)OCc4cccc(Cl)c4)CC3)c(C#N)c2)cc1Cl` [Example 3-10, 3-chlorobenzyl 4-{5-[3-chloro-4-(dimethylcarbamoyl)phenyl]-3-cyanopyridin-2-yl}piperazine-1-carboxylate], the figures for the Emax in test [1] and in test [2] were 75% and 79%, respectively. Further, the EC50 in test [1] worked out at 68 nM; in test [2], 23500 nM.
In the case of `CN(C)C(=O)c1ccc(-c2ccc(N3CC4CCC3CN4C(=O)OC(C)(C)C)c(Cl)c2)cc1Cl` (stereo not drawn) [Example 4-3, tert-butyl 5-[3,3′-dichloro-4′-(dimethylcarbamoyl)biphenyl-4-yl]-2,5-diazabicyclo[2.2.2]octane-2-carboxylate], in test [1], the Emax came out at 87% and the EC50 was 39 nM. In test [2], the Emax came out at 79% and the EC50 came out at 1570 nM.
The like results for `CC(C)(C)OC(=O)N1CCN(c2ncc(-c3ccc(C(=O)NCc4ncc[nH]4)c(Cl)c3)cc2C#N)CC1` [Example 5-16, tert-butyl 4-(5-{3-chloro-4-[(1H-imidazol-2-ylmethyl)carbamoyl]phenyl}-3-cyanopyridin-2-yl)piperazine-1-carboxylate] were, in that order, 91%, 43 nM, 68% and 1460 nM.
For `CCC(C)S(=O)(=O)N1CCN(c2ncc(-c3ccc(C(=O)N(C)C)c(Cl)c3)cc2C#N)CC1` (stereo not drawn) [Example 1-4, 2-chloro-4-(5-cyano-6-{4-[(1-methylpropyl)sulfonyl]piperazin-1-yl}pyridin-3-yl)-N,N-dimethylbenzamide], the Emax was found to be 81% in test [1] and 44% in test [2]. For the same molecule, the EC50 was 279 nM in test [1] and 49000 nM in test [2].
As to `CN(C)C(=O)c1ccc(-c2cnc(N3CCN(S(=O)(=O)c4ccccc4Cl)CC3)c(C#N)c2)cc1Cl` [Example 1-11, 2-chloro-4-(6-{4-[(2-chlorophenyl)sulfonyl]piperazin-1-yl}-5-cyanopyridin-3-yl)-N,N-dimethylbenzamide], the Emax in test [1] turned out to be 108%; in test [2], 51%. Moreover, the EC50 was 8 nM in test [1] and 3410 nM in test [2].
The like results for `COc1cc(-c2cnc(N3CCN(C(=O)OC(C)(C)C)CC3)c(C#N)c2)ccc1C(=O)N(C)C` [Example 8-2, tert-butyl 4-{3-cyano-5-[4-(dimethylcarbamoyl)-3-methoxyphenyl]pyridin-2-yl}piperazine-1-carboxylate] were, in that order, 73%, 28%, 846 nM and 25800 nM.
Consider `CN(CC(O)c1ccccc1)C(=O)c1ccc(-c2cnc(N3CCN(C(=O)OC(C)(C)C)CC3)c(C#N)c2)cc1Cl` (stereo not drawn) [Example 5-29, tert-butyl 4-(5-{3-chloro-4-[(2-hydroxy-2-phenylethyl)(methyl)carbamoyl]phenyl}-3-cyanopyridin-2-yl)piperazine-1-carboxylate], for which, in test [1], the Emax came to 75% and the EC50 stood at 1170 nM. In test [2], the Emax was 30% and the EC50 amounted to 6580 nM.
The like results for `CN(C)C(=O)c1ccc(-c2cnc(N3CCN(C(=O)OCc4ccccc4Cl)CC3)c(C#N)c2)cc1Cl` [Example 3-9, 2-chlorobenzyl 4-{5-[3-chloro-4-(dimethylcarbamoyl)phenyl]-3-cyanopyridin-2-yl}piperazine-1-carboxylate] were, in that order, 84%, 155 nM, 39% and 8900 nM.
